Results published in US7547687B2, “Therapeutic treatment methods” (priority 2002, dated 2009).

Tests used:
[1] = tested on: lethally-irradiated female B6D2F1 mice; test: Survival of lethally-irradiated mice (10 Gy total body irradiation); format: in vivo; settings: groups of 12 animals
Method: Treatment of ionizing radiation exposure. The effect of selected F1Cs on survival of lethally-irradiated female B6D2F1 mice were compared to control animals treated with vehicle alone. The animals were exposed to 10 Gy of total body irradiation at 2.5 Gy/min using a ^137Cs source. […] For Group 4, test article was administered as a 50 μL volume, by intramuscular injection for three consecutive days. The formulation was a suspension containing 0.1% w/v carboxymethyl-cellulose, 0.9% w/v sodium chloride and 0.05% v/v phenol. The formulations were agitated to uniformly resuspend the F1C before syringing, and injected into animals within a few minutes of drawing into the syringe to prevent settling in the syringe.
The groups of animals were treated as follows.
The number of surviving animals is shown for day 6, 7, 12 and 21.

[2] = tested on: female BALB/cByJ mice; test: Delayed type hypersensitivity (DTH) response to topical oxazolone challenge, differential ear thickness; format: in vivo; settings: 24 hours after oxazolone challenge; vehicle alone 0.225 mm
Method: Modulation of delayed type hypersensitivity. The capacity of F1Cs to modulate delayed type hypersensitivity (DTH) is determined in mice. Groups of five female BALB/cByJ mice (20-25 grams) are anesthetized and 100 μL of a 3% solution of oxazolone is applied on day 0 to the shaved abdomen and dried. Seven days later, on day 7, the mice are challenged by applying 5 μL of oxazolone topically to each side of the right ear. The F1C (at about 20-100 mg/mL) in vehicle is administered by subcutaneous injection (2 mg/day) one time on day 6, 24 hours before the oxazolone challenge. The vehicle as a non-aqueous suspension of the F1C in, e.g., 2% benzyl alcohol w/v, 0.1% Brij 96 w/v and equal volumes of PEG 300 and propylene glycol.
Dexamethasone in saline (0.2 mg/mL) is administered daily for 9 days (day −1 to 7), first dose 24 hours before sensitization, last dose at challenge by subcutaneous injection (0.01 mg/dose, 50 μL/injection). On Day 8, 24 hours following the oxazolone challenge, both the right and left ear thicknesses are measured using a micrometer caliper and the differences are determined. The differential ear thickness is measured as an indicator of the DTH response to topical oxazolone challenge. The DTH response is expressed as the difference in the thickness (mm) between the right and the left ears for each animal.

[3] = 0.6 mg i.m. daily for 3 consecutive days after 10 Gy
[4] = 0.6 mg s.c. daily for 3 consecutive days, first dose 2 to 4 hours after 10 Gy
[5] = 3.0 mg s.c. daily for 3 consecutive days after 10 Gy

Row | Compound | number of surviving animals, day 6 [1, 4] | number of surviving animals, day 7 [1, 4] | number of surviving animals, day 12 [1, 4] | number of surviving animals, day 21 [1, 4] | DTH response (differential ear thickness, right minus left ear) [2] [mm] | further results
1 | C[C@]12CC[C@H]3[C@@H](CC=C4C[C@@H](O)CC[C@@]43C)[C@@H]1CC[C@@H]2O [3β,17β-dihydroxyandrost-5-ene] | 12 | 11 | 10 | 7 | – | number of surviving animals, day 6 [1, 3]: 12; number of surviving animals, day 7 [1, 3]: 12; number of surviving animals, day 12 [1, 3]: 11; number of surviving animals, day 21 [1, 3]: 9; number of surviving animals, day 6 [1, 5]: 12; number of surviving animals, day 7 [1, 5]: 12; number of surviving animals, day 12 [1, 5]: 9; number of surviving animals, day 21 [1, 5]: 7
2 | C[C@]12CC[C@H]3[C@@H](CC=C4C[C@@H](O)CC[C@@]43C)[C@@H]1CC[C@@H]2N [3β-hydroxy-17β-aminoandrost-5-ene] | 12 | 12 | 12 | 11 | – | –
3 | O=P1(N(CCCl)CCCl)NCCCO1 (stereo not drawn) [cyclophosphamide] | – | – | – | – | 0.092 | –
4 | C[C@@H]1C[C@H]2[C@@H]3CCC4=CC(=O)C=C[C@]4(C)[C@@]3(F)[C@@H](O)C[C@]2(C)[C@@]1(O)C(=O)CO [dexamethasone] | – | – | – | – | 0.144 | –
